Read-outs that look alike come from different tables or passages of the source.
Legend:
[1] = biological target: hDGAT2 (Homo sapiens (Human), UniProt Q96PD7); test: In vitro DGAT2 assay, hDGAT2 membrane fraction, [14C]decanoyl-CoA scintillation readout; format: biochemical; settings: geometric mean; FLAG-hDGAT2 membrane fraction; 2 h preincubation; read-out: IC50 for inhibition of DGAT2
Procedure: Recombinant baculovirus for the FLAG-tagged hDGAT2 was generated in SF9 insect cells using Bac-to-Bac baculovirus expression system (Invitrogen) according to the manufacturer's protocol. For the expression of hDGAT2, SF9 cells (20 L) grown in Sf90011 media were infected with hDGAT2 baculovirus at a multiplicity of infection of 1 in a Wave Bioreactor System 20/50P wave bag (GE Healthcare). After 40 hours of infection, the cells were then harvested by centrifugation at 5,000×g. The cell pellets were washed by resuspending in phosphate buffered saline (PBS) and collected by centrifugation at 5,000×g. The cell paste was flash frozen in liquid N2 and stored at −80° C. until needed. All operations below were at 4° C. unless otherwise noted. The cells were resuspended in lysis buffer (50 mM Tris-HCl, pH 8.0, 250 mM sucrose) including 1 mM ethylenediaminetetraacetic acid (EDTA) and the complete protease inhibitor cocktail (Roche Diagnostics) at a ratio of 3 ml buffer per 1 g cell paste. The cells were lysed by dounce homogenizer. The cell debris was removed by centrifugation at 1,000×g for 20 min, and the supernatant was centrifuged at 100,000×g for 1 hour. The resulting pellet was rinsed three times by filling ultracentrifuge tubes to the top with ice cold PBS before decanting. The washed pellet was resuspended with gentle stirring for 1 hour in lysis buffer containing 8 mM 3-[(3-cholamidopropyl)dimethylammonio]-1-propanesulfonate (CHAPS) at a ratio of 1 mL buffer per 1 g of original cell paste and centrifuged again at 100,000×g for 1 hour. The resulting supernatant was aliquotted, flash frozen in liquid N2, and stored at −80° C. until use.
For determination of IC50 values, the reactions were carried out in 384-well white Polyplates (Perkin Elmer) in a total volume of 20 μL. To […] compounds dissolved in 100% DMSO and spotted at the bottom of each well, 5 μL of 0.04% bovine serum albumin (BSA) (fatty acid free, Sigma Aldrich) was added and the mixture was incubated at room temperature for 20 minutes. To this mixture, 10 μL of hDGAT2 membrane fraction (0.01 mg/mL) diluted in 100 mM Hepes-NaOH, pH 7.4, 20 mM MgCl2 containing 200 nM methyl arachidonyl fluorophosphonate (Cayman Chemical; dried from ethyl acetate stock solution under argon gas and dissolved in DMSO as 5 mM stock) was added. After this mixture was preincubated at room temperature for 2 hours, DGAT2 reactions were initiated by the addition of 4 μL of substrates containing 30 μM [1-^14C]decanoyl-CoA (custom-synthesized by Perkin Elmer, 50 mCi/mmol) and 125 μM 1,2-didecanoyl-sn-glycerol (Avanti Polar Lipids) dissolved in 12.5% acetone. The reaction mixtures were incubated at room temperature for 40 min and the reactions were stopped by addition of 5 μL of 1% H3PO4. After the addition of 45 μL MicroScint-E (Perkin-Elmer), plates were sealed with Top Seal-A covers (Perkin-Elmer) and phase partitioning of substrates and products was achieved using a HT-91100 microplate orbital shaker (Big Bear Automation, Santa Clara, Calif.). Plates were centrifuged at 2,000×g for 1 min in an Allegra 6R Centrifuge (Beckman Coulter) and then were sealed again with fresh covers before reading in a 1450 Microbeta Wallac Trilux Scintillation Counter (Perkin Elmer). DGAT2 activity was measured by quantifying the generated product [^14C]tridecanoylglycerol in the upper organic phase.
Inhibitors were tested at eleven different concentrations to generate IC50 values for each compound.

[2] = biological target: DGAT2 in primary human hepatocytes (Homo sapiens (Human), UniProt Q96PD7); test: IC50 for DGAT2 inhibitors in human hepatocytes, [14C]-glycerol incorporation into lipids; format: cell-based
Chain of DGAT2 in primary human hepatocytes (Q96PD7 whole entry): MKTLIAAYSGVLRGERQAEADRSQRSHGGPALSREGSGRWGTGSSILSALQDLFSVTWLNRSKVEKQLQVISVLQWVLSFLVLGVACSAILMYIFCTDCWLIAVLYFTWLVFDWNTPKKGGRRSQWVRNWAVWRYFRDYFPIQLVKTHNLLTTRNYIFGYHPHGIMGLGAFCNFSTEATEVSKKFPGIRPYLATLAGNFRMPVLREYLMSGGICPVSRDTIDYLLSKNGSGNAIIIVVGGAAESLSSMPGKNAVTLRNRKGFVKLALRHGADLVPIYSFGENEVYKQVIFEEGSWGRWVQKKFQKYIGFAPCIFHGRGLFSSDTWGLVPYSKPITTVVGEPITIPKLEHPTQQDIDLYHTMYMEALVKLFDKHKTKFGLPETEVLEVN
Procedure: For evaluation of the effects of DGAT2 inhibitors in a cell-based setting, cryopreserved human hepatocytes (Lot QOC and NON, Celsis, Chicago, Ill.) were thawed and plated onto type I collagen-coated plates according to the manufacturer's instructions. After 24 hours overnight recovery period, the cells were overlayed with media containing 250 μg/ml Matrigel (BD Biosciences, San Jose, Calif.). The following day, media was aspirated and replaced with serum-free Williams Media E (Life Technologies, Grand Island, N.Y.) containing 400 μM sodium dodecanoate (Sigma-Aldrich, St. Louis, Mo.). Forty minutes later, DGAT2 inhibitors (prepared as 100× stocks in 25% DMSO, 75% Williams' Media E) were added to the desired final concentration. […] After a 20 minute preincubation, 0.2 μCi [1,3-^14C]-glycerol glycerol (American Radio Chemicals, St. Louis, Mo.) was added to each well and mixed by gentle pipetting prior to a 3 hour incubation. At this point, media was aspirated and the cells were lysed in isopropyl alcohol: tetrahydrofuran (9:1) prior to centrifugation at 3000 rpm for 5 minutes. Radiolabeled lipids were resolved using a 2-solvent system by thin layer chromatography using standard technique (solvent 1 contained ethyl acetate:isopropyl alcohol:chloroform:methanol:0.25% potassium chloride in water (100:100:100:40.2:36.1, v/v/v/v) and solvent 2 contained hexane: diethyl ether: acetic acid (70:27:3, v/v/v)). After separation, radiolabeled lipids were visualized using a Molecular Dynamics' PhosphorImager system. The half maximal inhibitory concentrations (IC50 values) were determined using GraphPad Prism (GraphPad Software, Inc., La Jolla, Calif.).
Table 4 below provides IC50 values for the Examples in accordance with the above-described assay. Results were reported as average IC50 values, low and high IC50 range (95% confidence interval).

[3] = average, cryopreserved human hepatocytes, selective DGAT1 inhibitor 3 μM in all wells, 3 hour incubation, read-out: IC50 in primary human hepatocytes

Chain of hDGAT2 (Q96PD7 whole entry): as above

IC50 [1] | IC50 [2, 3] | SMILES | IC50 [2]
2.4 nM | 78.8 nM | CCOc1ccccc1O[C@@H]1CCCN(c2ncc(C(=O)NCc3ccc(C(C)C(=O)O)cc3)cn2)C1 (single isomer, unassigned) [Example 15] | –
123 nM | 11.5 nM | CCOc1ccccc1O[C@@H]1CCCN(c2ncc(C(=O)NCc3cc(OC)cc(C(=O)O)c3)cn2)C1 [Example 2, (R)-3-((2-(3-(2-ethoxyphenoxy)piperidin-1-yl)pyrimidine-5-carboxamido)methyl)-5-methoxybenzoic acid] | –
165 nM | 116 nM | CCOc1ccccc1O[C@@H]1CCCN(c2ncc(C(=O)NCc3ccc(C(=O)O)cc3)cn2)C1 [Example 18.1, (R)-4-((2-(3-(2-ethoxyphenoxy)piperidin-1-yl)pyrimidine-5-carboxamido)methyl)benzoic acid] | –
182 nM | 19.8 nM | CCNC(=O)c1cnc(N2CCC[C@@H](Oc3ccc(C#N)cc3OCC)C2)nc1 [Example 17, (R)-2-(3-(4-cyano-2-ethoxyphenoxy)piperidin-1-yl)-N-ethylpyrimidine-5-carboxamide] | –
170 nM | 59.8 nM | CCOc1ccccc1O[C@@H]1CCCN(c2ncc(C(=O)N3CC[C@H]3C(N)=O)cn2)C1 [Example 20.10, (S)-1-(2-((R)-3-(2-ethoxyphenoxy)piperidin-1-yl)pyrimidine-5-carbonyl)azetidine-2-carboxamide] | –
87.3 nM | 10.4 nM | CCOc1ccccc1O[C@@H]1CCCN(c2ncc(C(=O)NCc3cc(C(=O)O)ccc3F)cn2)C1 [Example 10, (R)-3-((2-(3-(2-ethoxyphenoxy)piperidin-1-yl)pyrimidine-5-carboxamido)methyl)-4-fluorobenzoic acid] | –
149 nM | 19.2 nM | CCOc1ccccc1O[C@@H]1CCCN(c2ccc(C(=O)NCc3cccc(C(=O)O)c3)cn2)C1 [Example 7, (R)-3-((6-(3-(2-ethoxyphenoxy)piperidin-1-yl)nicotinamido)methyl)benzoic acid] | –
66.6 nM | 8.4 nM | CCOc1ccccc1O[C@@H]1CCCN(c2ncc(C(=O)N[C@H]3CCC[C@H]3C(=O)O)cc2F)C1 [Example 5, (1R,2S)-2-(6-((R)-3-(2-ethoxyphenoxy)piperidin-1-yl)-5-fluoronicotinamido)cyclopentane-1-carboxylic acid] | –
29.3 nM | 37.8 nM | CCOc1ccccc1O[C@@H]1CCCN(c2ncc(C(=O)NCCc3cn[nH]c3O)cn2)C1 [Example 20.8, (R)-2-(3-(2-ethoxyphenoxy)piperidin-1-yl)-N-(2-(5-hydroxy-1H-pyrazol-4-yl)ethyl)pyrimidine-5-carboxamide] | –
45.2 nM | 20.7 nM | CCOc1ccccc1O[C@@H]1CCCN(c2ncc(C(=O)NCc3ccc(C(=O)O)cc3C)cn2)C1 [Example 13, (R)-4-((2-(3-(2-ethoxyphenoxy)piperidin-1-yl)pyrimidine-5-carboxamido)methyl)-3-methylbenzoic acid] | –
88.4 nM | 29.2 nM | CCOc1ccccc1O[C@@H]1CCCN(c2ncc(C(=O)N[C@H](C)c3cccc(C(=O)O)c3)cn2)C1 [Example 3, 3-((R)-1-(2-((R)-3-(2-ethoxyphenoxy)piperidin-1-yl)pyrimidine-5-carboxamido)ethyl)benzoic acid] | –
47.7 nM | 45 nM | CCOc1ccccc1O[C@@H]1CCCN(c2ncc(C(=O)NCc3cc(C)cc(C(=O)O)c3)cn2)C1 [Example 16, (R)-3-((2-(3-(2-ethoxyphenoxy)piperidin-1-yl)pyrimidine-5-carboxamido)methyl)-5-methylbenzoic acid] | –
156 nM | 45.7 nM | CCOc1ccccc1O[C@@H]1CCCN(c2ncc(C(=O)NCc3cccc(CC(=O)O)c3)cn2)C1 [Example 18.2, (R)-2-(3-((2-(3-(2-ethoxyphenoxy)piperidin-1-yl)pyrimidine-5-carboxamido)methyl)phenyl)acetic acid] | –
222 nM | 57.8 nM | CCOc1ccccc1O[C@@H]1CCCN(c2ncc(C(=O)N[C@H]3CCC[C@H]3C(=O)O)cn2)C1 [Example 6, (1R,2S)-2-(2-((R)-3-(2-ethoxyphenoxy)piperidin-1-yl)pyrimidine-5-carboxamido)cyclopentane-1-carboxylic acid] | –
38.1 nM | 57 nM | CCOc1ccccc1O[C@@H]1CCCN(c2ncc(C(=O)NCc3cc(C(=O)O)ccc3C)cn2)C1 [Example 9, (R)-3-((2-(3-(2-ethoxyphenoxy)piperidin-1-yl)pyrimidine-5-carboxamido)methyl)-4-methylbenzoic acid] | –
68 nM | 81.6 nM | CCOc1ccccc1O[C@@H]1CCCN(c2ncc(C(=O)NCc3nc(=O)[nH][nH]3)cn2)C1 [Example 20.5, (R)-2-(3-(2-ethoxyphenoxy)piperidin-1-yl)-N-((5-oxo-2,5-dihydro-1H-1,2,4-triazol-3-yl)methyl)pyrimidine-5-carboxamide] | –
91.6 nM | 11.2 nM | CCOc1ccccc1O[C@@H]1CCCN(c2ncc(C(=O)NCc3cccc(C(=O)O)c3)cn2)C1 [Example 1, (R)-3-((2-(3-(2-ethoxyphenoxy)piperidin-1-yl)pyrimidine-5-carboxamido)methyl)benzoic acid] | –
182 nM | 499 nM | CCOc1ccccc1O[C@@H]1CCCN(c2ncc(C(=O)NCc3ccccc3CC(=O)O)cn2)C1 [Example 18.3, (R)-2-(2-((2-(3-(2-ethoxyphenoxy)piperidin-1-yl)pyrimidine-5-carboxamido)methyl)phenyl)acetic acid] | –
122 nM | – | CCOc1ccccc1O[C@@H]1CCCN(c2ncc(C(=O)N[C@@H]3CNC(=O)C3)cn2)C1 [Example 19.16, 2-((R)-3-(2-ethoxyphenoxy)piperidin-1-yl)-N-((S)-5-oxopyrrolidin-3-yl)pyrimidine-5-carboxamide] | –
21.5 nM | – | CCOc1ccccc1O[C@@H]1CCCN(c2ncc(C(=O)N3C[C@H]4C[C@@H]3CO4)cn2)C1 [Example 19.14, ((1R,4R)-2-oxa-5-azabicyclo[2.2.1]heptan-5-yl)(2-((R)-3-(2-ethoxyphenoxy)piperidin-1-yl)pyrimidin-5-yl)methanone] | –

SMILES | IC50 [1] | IC50 [2, 3] | IC50 [2]
CCOc1ccccc1O[C@@H]1CCCN(c2ncc(C(=O)NCc3cc(O)no3)cn2)C1 [Example 19.2, (R)-2-(3-(2-ethoxyphenoxy)piperidin-1-yl)-N-((3-hydroxyisoxazol-5-yl)methyl)pyrimidine-5-carboxamide] | 262 nM | – | 341 nM
